Test results: patent US20220133701A1, “METHODS OF TREATING PAIN” (Yeda Research and Development Co. Ltd., priority 2019, published 2022)

Key:
Type in all cases: in vivo, mouse
mice [1] = assay: Response to noxious heat (metal probe heated to 58° C. applied to paw, paw withdrawal latency)
Method: Pain Models—Responses to noxious heat were assessed by applying a metal probe heated to 58° C. to a forelimb paw, while holding the animal. Paw withdrawal latency was timed, typically ranging between 2-4 seconds in wild-type animals. If the paw was not withdrawn within 20 seconds the assay was terminated. The test was repeated three times for each animal, with at least 20 minute intervals between repeats. Heat sensitivity was also assessed using the hot plate test [L. Urien et al., Sci Rep 7, 43493 (2017)]. To this end, mice were placed individually in a 20 cm high Plexiglas box on a metal surface set at 52, 55 or 58° C., and the latency to initiate a nociceptive response (licking, hind paws shaking, jumping) was monitored by videotape. Mice were removed from the plate immediately after a nociceptive response.

importin α3 = assay: Importin α3 immunostaining intensity in DRG sections and cultured DRG neurons (line scan / nuclear intensity)
Method: Histology—Lumbar sections of the spinal cord including Dorsal root ganglia (DRGs) were pre-fixed for 6 minutes before dissection of spinal cord and associated DRGs. Lumbar DRG (L4, unless otherwise indicated) and/or spinal cord were then fixed for six hours in 4% PFA in PBS, washed in PBS and equilibrated in 20% w/v sucrose in PBS prior to serial cryo-sectioning at a thickness of 10-20 μm. Following, one set for each DRG was processed for immunostaining. […]
Fluorescence Intensity Analysis: Line scan analysis of fluorescence intensity was carried out on high-resolution confocal z-stack from DRG sections to determine fluorescence intensity of c-FOS and importin α3 over cell regions of interest in-vivo. […] The integrated density was calculated as the sum of the values of the pixels in both cytoplasmic and nuclear regions of interest determined on the basis of TuJ-1, CGRP, TRPV1 or DAPI staining, respectively.

Kpna4/importin α3 mRNA = assay: RT-qPCR of importin α3 (Kpna4) mRNA in DRG cultures after intrathecal AAV; conditions: DRG cultures from mice one month following intrathecal injection; vs shCtrl (FIG. 3F)
Method: Gene expression analysis by RT-qPCR: Total RNA from DRG neuronal cultures and DRG tissue from SNI mice were extracted using the Ambion RNAqueous-Micro total RNA isolation kit (Life Technologies Corp.). RNA purity, integrity (RIN>8) and concentration was determined, and 100-200 ng of total RNA was then used to synthesize cDNA using SuperScript III (Invitrogen). RT-qPCR was performed on a ViiA7 System (Applied Biosystems) using PerfeCTa SYBR Green (Quanta Biosciences, Gaithersburg, USA). Forward/Reverse primers were designed for different exons and the RNA was treated with […] to avoid false-positives. Amplicon specificity was verified by melting curve analysis. All RT-qPCR reactions were conducted in technical triplicates and the results were averaged for each sample, normalized to Actb levels and the relevant reporter genes such as GFP and for the viruses; and analyzed using the comparative ΔΔCt method [Livak & Schmittgen. Methods 25, 402 (2001)]. The following primers (Mus musculus) were used: […]

SNI mice = assay: CatWalk gait analysis (footprint width) in SNI mice; conditions: AAV9 shRNA, 60 days post-injury, vs shCtrl (FIG. 4D)
Method: CatWalk gait analysis and training was carried out as previously described [Perry et al. Neuron 75, 294 (2012)]. Motivation was achieved by a combination of food restriction during the initial training and placing of palatable reward at runway ends. The test was repeated three times for each mouse. Data were collected and analyzed using the Catwalk Ethovision XT11 software (Noldus Information Technology, The Netherlands). The analyzed indices are reported for each animal as print area and print width.

mice [2] = assay: Open field; conditions: wild-type mice three weeks after intrathecal AAV9 shRNA (FIG. 5A)
Method: Motility and anxiety-like behaviors were assayed in the open field (OF) as previously described^8. Mouse activity was tracked and recorded using VideoMot2 (TSE System, Germany). OF was performed under 120 1× for the assessment of anxiety-related behaviors. The OF raw data were further analyzed with COLORcation [Dagan et al. J Neurosci Methods 270, 9 (2016)].

mice [3] = assay: Rotarod; conditions: wild-type mice three weeks after intrathecal AAV9 shRNA (FIG. 5B)
Method: Rotarod experiments to assess integrity of balance and coordination [Crawley. Neuron 57, 809 (2008)] was carried out using a ROTOR-ROD™ system (83×91×61-SD Instruments, San Diego). Mice were subjected to three trials with 20 minutes inter-trial intervals over three consecutive days, at three weeks and five weeks after AAV9 injection, calculating the daily average each time. Rotarod acceleration was set to 20 rpm in 240 seconds. Latency to fall (sec) was recorded and the average of the three or six consecutive trials was used as an index of motor coordination and balance.

[4] = listed as anti-importin α3 shRNAs

shα3: AAV9 expressing an importin α3 targeting shRNA (SEQ ID NO: 8), intrathecal injection (DNA GATCCGGCTTTGACAAACATTGCATGAAGCTTGATGCAATGTTTGTCAAAGCCTTTTTT)
response to noxious heat (mice [1]; importin α3 knockout (−/−) mice after intrathecal AAV9 construct): No further alteration of the noxious heat response | response to noxious heat (mice [1]; importin α3 knockout (−/−) mice after intrathecal AAV9 construct, listed as anti-importin α3 shRNAs): no further effect on responses to noxious heat | response to noxious heat (mice [1]; wild type mice after intrathecal injection of AAV9 construct, vs control construct): reduced response of WT mice to noxious heat | response to noxious heat (mice [1]; wild type mice after intrathecal injection of AAV9 construct, vs control construct, listed as anti-importin α3 shRNAs): delayed paw withdrawal latency to noxious heat | impα3 nuclear intensity in cultured DRG neurons (importin α3; cultures of treated animals vs shCtrl (FIGS. 3G-H)): significant reduction in nuclear levels | impα3 signal, line scan intensity in DRG sections (importin α3; wild type mice one month following intrathecal injection, vs shCtrl (FIG. 3E)): reduction of impα3 signal | impα3 mRNA (RT-qPCR, log 2 fold-change normalized to GFP) (Kpna4/importin α3 mRNA): significant downregulation of impα3 mRNA | footprint width / paw morphology and gait parameters, Catwalk (SNI mice): significant recovery by 60 days | footprint width / paw morphology and gait parameters, Catwalk (SNI mice; listed as anti-importin α3 shRNA): regained unaltered paw morphology and gait parameters | open field (exploratory behaviour) (mice [2]): No deficits were observed in either test | open field (exploratory behaviour) (mice [2]; [4]): no effect | rotarod (motor coordination) (mice [3]): No deficits were observed in either test | rotarod (motor coordination) (mice [3]; [4]): no effect
